Reference: the supplement of paper PMC10307832

Columns and labels:
Assay in all cases: relative viability (nuclei count vs DMSO), 5 days (fraction); higher = more cells survive
[1] = compound: C=CC(=O)N1CCC[C@@H](n2nc(-c3ccc(Oc4ccccc4)cc3)c3c(N)ncnc32)C1 [Ibrutinib] + CC1(C)CCC(c2ccc(Cl)cc2)=C(CN2CCN(c3ccc(C(=O)NS(=O)(=O)c4ccc(N[C@H](CCN5CCOCC5)CSc5ccccc5)c(S(=O)(=O)C(F)(F)F)c4)cc3)CC2)C1 [Navitoclax] (partner 0.5 µM)
In short: (§1)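 Nuclei were stained with Hoechst during a one-step fixation (final 0.05% Triton X-100, 1% formaldehyde, 1 ug/ml Hoechst) carried out 5 days after dosing, then counted on 4× images. The cells, lung cancer lines in 1536-well plates, had been dosed by pin tool the day after seeding with one drug alone or a fixed anchor-drug dose plus five library-drug doses (not always all listed) in √10 steps. Relative viability is the nuclei count in treated wells divided by that in vehicle wells, and each value is the median of duplicate plates.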

[2] = compound: C=CC(=O)Nc1cc(-n2c(=O)ccc3cnc4ccc(-c5ccc(NS(C)(=O)=O)cc5)cc4c32)ccc1C [BMX-IN-1] + CC(=O)Nc1cccc(-n2c(=O)n(C3CC3)c(=O)c3c(Nc4ccc(I)cc4F)n(C)c(=O)c(C)c32)c1 [Trametinib] (partner 0.02 µM)
In short: as §1

[3] = compound: C=CCc1cccc(/C=N/NC(=O)CN2CCN(Cc3ccccc3)CC2)c1O [PAC-1] + COc1cccc2cc(-c3nc([C@H]4CC[C@H](C(=O)O)CC4)n4ncnc(N)c34)[nH]c12 [OSI-027] (partner 0.5 µM)
In short: as §1

[4] = compound: C=CCc1cccc(/C=N/NC(=O)CN2CCN(Cc3ccccc3)CC2)c1O [PAC-1] + Cc1nc(NC(=O)N2CCC[C@H]2C(N)=O)sc1-c1ccnc(C(C)(C)C(F)(F)F)c1 [Alpelisib] (partner 2 µM)
In short: as §1

Q: For SK-MES-1, which relative viability ([1]; first compound 0.005 µM) is on record?
A: 1.19

Q: And the relative viability ([1]; first compound 0.01581 µM)?
A: 1.2

Q: And the relative viability ([1]; first compound 0.05 µM)?
A: 1.34

Q: What about the relative viability ([1]; first compound 0.1581 µM) of the same cell line?
A: 1.32

Q: What about the relative viability ([1]; first compound 0.5 µM) of the same cell line?
A: 0.723

Q: What about the relative viability ([2]; first compound 0.02 µM) of the same cell line?
A: 0.603

Q: What about the relative viability ([2]; first compound 0.2 µM) of the same cell line?
A: 0.542

Q: What about the relative viability ([2]; first compound 0.6325 µM) of the same cell line?
A: 0.561

Q: What about the relative viability ([2]; first compound 2 µM) of the same cell line?
A: 0.537

Q: What about the relative viability ([3]; first compound 0.02 µM) of the same cell line?
A: 0.651

Q: What about the relative viability ([3]; first compound 0.06325 µM) of the same cell line?
A: 0.636

Q: And the relative viability ([3]; first compound 0.2 µM)?
A: 0.533

Q: And the relative viability ([3]; first compound 2 µM)?
A: 0.645

Q: And the relative viability ([4]; first compound 0.02 µM)?
A: 0.845

Q: What about the relative viability ([4]; first compound 0.06325 µM) of the same cell line?
A: 0.908

Q: What about the relative viability ([4]; first compound 0.2 µM) of the same cell line?
A: 0.878

Q: What about the relative viability ([4]; first compound 2 µM) of the same cell line?
A: 0.955
